Values of other authors as cited in patent US20180344676A1, “TOPICAL ANALGESIC PAIN RELIEF FORMULATIONS, MANUFACTURE AND METHODS OF USE THEREOF” (priority 2015, published 2018).

Key:
human TRPM8 (hTRPM8) = human TRPM8 (hTRPM8) (Homo sapiens, UniProt Q7Z2W7)
hTRPV1 = hTRPV1 (Homo sapiens, UniProt Q8NER1)
hTRPV2 = biological target: T1, hTRPV2 (Homo sapiens, UniProt Q9Y5S1)
T1 sequence (Q9Y5S1 1-764): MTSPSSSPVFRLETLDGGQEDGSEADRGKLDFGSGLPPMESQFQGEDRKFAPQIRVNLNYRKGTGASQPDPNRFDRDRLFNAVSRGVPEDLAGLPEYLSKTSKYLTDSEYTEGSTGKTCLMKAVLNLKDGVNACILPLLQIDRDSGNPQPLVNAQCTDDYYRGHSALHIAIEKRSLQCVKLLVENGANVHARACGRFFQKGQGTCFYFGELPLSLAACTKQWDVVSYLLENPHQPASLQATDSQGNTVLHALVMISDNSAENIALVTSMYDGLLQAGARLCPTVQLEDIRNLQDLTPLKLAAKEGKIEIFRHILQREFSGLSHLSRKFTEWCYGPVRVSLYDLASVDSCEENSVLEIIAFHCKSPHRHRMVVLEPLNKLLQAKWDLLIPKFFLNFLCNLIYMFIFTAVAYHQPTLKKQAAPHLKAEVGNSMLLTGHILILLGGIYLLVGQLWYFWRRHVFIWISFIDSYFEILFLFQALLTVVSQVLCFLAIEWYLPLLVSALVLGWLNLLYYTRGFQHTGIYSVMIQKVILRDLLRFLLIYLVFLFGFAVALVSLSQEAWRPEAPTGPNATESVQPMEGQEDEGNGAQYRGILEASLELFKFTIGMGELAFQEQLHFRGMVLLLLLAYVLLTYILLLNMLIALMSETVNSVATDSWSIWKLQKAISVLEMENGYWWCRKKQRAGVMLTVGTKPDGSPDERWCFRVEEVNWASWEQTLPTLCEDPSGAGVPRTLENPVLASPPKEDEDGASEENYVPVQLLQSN

hTRPA1 = hTRPA1 (Homo sapiens, UniProt O75762); conditions: for inhibition of hTRPA1 activation by menthol and allyl isothiocyanate: compound at 1 mM, menthol 1 mM and allyl isothiocyanate 10 uM
Chain of hTRPA1 (O75762 whole entry): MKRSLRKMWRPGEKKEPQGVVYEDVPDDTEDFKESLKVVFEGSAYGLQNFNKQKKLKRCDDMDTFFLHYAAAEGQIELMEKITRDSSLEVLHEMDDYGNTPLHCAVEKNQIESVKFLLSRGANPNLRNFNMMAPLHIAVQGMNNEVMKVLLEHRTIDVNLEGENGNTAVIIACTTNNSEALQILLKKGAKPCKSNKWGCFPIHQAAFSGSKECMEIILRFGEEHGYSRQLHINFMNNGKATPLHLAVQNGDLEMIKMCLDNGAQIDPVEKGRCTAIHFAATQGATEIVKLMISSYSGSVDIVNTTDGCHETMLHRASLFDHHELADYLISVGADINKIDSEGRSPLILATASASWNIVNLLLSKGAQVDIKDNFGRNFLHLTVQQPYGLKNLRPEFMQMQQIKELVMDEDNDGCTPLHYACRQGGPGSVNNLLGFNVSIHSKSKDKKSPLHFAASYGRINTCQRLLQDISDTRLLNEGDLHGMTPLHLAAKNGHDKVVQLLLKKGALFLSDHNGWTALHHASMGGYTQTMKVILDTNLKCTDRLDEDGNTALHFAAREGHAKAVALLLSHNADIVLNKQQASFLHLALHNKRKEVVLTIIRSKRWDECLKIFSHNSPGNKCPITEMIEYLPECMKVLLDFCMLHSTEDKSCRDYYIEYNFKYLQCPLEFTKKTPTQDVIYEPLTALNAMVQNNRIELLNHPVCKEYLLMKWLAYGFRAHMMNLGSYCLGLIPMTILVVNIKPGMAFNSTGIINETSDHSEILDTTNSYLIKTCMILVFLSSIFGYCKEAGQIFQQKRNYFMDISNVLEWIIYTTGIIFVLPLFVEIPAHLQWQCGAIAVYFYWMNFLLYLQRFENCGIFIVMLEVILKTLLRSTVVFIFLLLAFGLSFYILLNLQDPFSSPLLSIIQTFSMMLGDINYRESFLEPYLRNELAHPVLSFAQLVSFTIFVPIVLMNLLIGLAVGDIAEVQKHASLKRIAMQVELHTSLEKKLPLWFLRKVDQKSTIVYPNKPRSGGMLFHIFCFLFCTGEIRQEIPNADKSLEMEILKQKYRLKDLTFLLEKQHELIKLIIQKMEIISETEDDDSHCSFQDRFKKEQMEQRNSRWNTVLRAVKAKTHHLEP

pain and itch responses = conditions: mice

Chain of hTRPV1 (Q8NER1 whole entry): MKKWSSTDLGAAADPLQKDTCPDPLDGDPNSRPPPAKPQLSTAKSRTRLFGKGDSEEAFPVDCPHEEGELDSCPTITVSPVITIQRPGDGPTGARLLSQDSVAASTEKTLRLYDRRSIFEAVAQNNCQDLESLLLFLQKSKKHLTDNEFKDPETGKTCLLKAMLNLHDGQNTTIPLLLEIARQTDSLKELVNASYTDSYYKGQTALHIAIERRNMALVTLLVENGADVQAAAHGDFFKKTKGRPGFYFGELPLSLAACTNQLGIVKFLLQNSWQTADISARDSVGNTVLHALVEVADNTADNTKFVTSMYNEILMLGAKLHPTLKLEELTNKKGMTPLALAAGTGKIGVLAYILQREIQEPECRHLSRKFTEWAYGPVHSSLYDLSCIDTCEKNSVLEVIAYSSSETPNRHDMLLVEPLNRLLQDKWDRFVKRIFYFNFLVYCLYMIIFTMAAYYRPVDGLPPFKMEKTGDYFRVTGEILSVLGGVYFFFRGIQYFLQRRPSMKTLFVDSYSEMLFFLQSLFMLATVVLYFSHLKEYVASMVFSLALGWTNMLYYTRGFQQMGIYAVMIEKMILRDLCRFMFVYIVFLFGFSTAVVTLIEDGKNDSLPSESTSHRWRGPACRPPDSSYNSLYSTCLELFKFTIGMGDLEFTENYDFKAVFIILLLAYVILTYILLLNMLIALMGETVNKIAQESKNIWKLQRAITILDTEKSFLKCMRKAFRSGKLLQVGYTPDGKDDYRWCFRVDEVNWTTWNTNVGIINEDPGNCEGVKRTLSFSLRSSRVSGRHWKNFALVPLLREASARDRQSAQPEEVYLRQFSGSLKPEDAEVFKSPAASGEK
Chain of human TRPM8 (hTRPM8) (Q7Z2W7 whole entry): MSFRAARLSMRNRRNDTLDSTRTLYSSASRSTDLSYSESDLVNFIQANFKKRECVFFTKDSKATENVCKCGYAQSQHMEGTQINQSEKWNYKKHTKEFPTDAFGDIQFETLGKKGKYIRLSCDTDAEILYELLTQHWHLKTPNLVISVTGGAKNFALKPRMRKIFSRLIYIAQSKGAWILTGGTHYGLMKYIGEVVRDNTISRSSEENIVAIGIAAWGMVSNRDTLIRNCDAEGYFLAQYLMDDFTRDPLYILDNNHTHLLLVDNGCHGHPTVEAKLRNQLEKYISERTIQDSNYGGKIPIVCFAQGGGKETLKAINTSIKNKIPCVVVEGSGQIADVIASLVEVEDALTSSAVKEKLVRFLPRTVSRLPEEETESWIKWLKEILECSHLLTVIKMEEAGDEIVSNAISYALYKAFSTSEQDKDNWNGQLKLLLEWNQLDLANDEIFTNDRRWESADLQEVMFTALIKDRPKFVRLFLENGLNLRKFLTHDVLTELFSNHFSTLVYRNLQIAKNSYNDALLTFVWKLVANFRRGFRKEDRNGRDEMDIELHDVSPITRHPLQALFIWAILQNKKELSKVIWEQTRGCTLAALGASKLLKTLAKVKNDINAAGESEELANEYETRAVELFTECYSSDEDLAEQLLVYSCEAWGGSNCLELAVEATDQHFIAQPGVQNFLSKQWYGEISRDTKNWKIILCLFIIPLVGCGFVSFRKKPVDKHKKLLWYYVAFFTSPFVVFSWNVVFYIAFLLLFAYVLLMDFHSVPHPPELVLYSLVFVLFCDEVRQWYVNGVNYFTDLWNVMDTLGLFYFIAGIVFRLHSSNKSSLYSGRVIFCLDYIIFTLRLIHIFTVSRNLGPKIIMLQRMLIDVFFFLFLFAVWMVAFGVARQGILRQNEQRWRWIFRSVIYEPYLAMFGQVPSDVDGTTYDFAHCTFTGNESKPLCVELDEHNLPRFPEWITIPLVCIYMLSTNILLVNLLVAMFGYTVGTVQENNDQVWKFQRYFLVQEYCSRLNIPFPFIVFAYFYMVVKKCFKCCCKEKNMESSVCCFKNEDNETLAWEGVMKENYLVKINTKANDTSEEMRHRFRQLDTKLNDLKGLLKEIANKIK

| Compound | activation of hTRPA1 (hTRPA1) | inhibition of hTRPA1 activation by menthol and allyl isothiocyanate (hTRPA1) | other results |
| --- | --- | --- | --- |
| CC12CCC(CC1)C(C)(C)O2 [1,8-cineole] | – | – | activation of human TRPM8 (human TRPM8 (hTRPM8)): activates; activation of hTRPV1 (hTRPV1): did no( activate; activation of hTRPV2 (hTRPV2): did no( activate |
| CC12CCC(CC1=O)C2(C)C (stereo not shown) [camphor] | did not activate | – | – |
| O=C1CC2CC[C@H]1C2 [norcamphor] | did not activate | – | – |
| CCCCCCCC/C=C\CCCCCCCC(=O)O [oleic acid] | – | – | TRPV1 activity (TRPV1): inhibited; pain and itch responses (pain and itch responses): inhibited |
| CC1(C)C2CCC1(C)C(O)C2 (stereo not shown) [borneol] | did not activate | completely inhibited | – |
| CC12CCC(C1)C(C)(C)C2O (stereo not shown) [fenchyl alcohol] | did not activate | completely inhibited | – |
| CC1(C)[C@@H]2CC[C@@]1(C)[C@](C)(O)C2 [2-methylosoborneol] | did not activate | completely inhibited | – |
